Usually Kd stands for a measure of binding affinity in units of concentration. Low readings indicate a tighter complex, high ones a looser complex. A word on the IC50: it is the concentration that gives 50% inhibition.

In one assay the target is T1, full-length Hsp90β (Homo sapiens, UniProt P08238).
T1 construct: For the protein expression of full-length Hsp90β, we received plasmids as a kind gift; made in house; host or cells: Escherichia coli strain Rosetta
As to the kind of experiment: Microscale thermophoresis (MST) binding to Hsp90β. As to conditions: full-length Hsp90β, absence of Cdc37. Here is the method:
For the protein expression of full-length Hsp90β, we received plasmids as a kind gift from Dr Asta Zubriené at the Institute of Biotechnology, Vilnius University, Lithuania. Hsp90β, tagged with N-terminal 6×His-tag, was expressed in Escherichia coli strain Rosetta. The cells were cultured in LB media supplemented with kanamycin (50 μg mL^−1) and chloramphenicol (34 μg mL^−1) at 37 °C, and protein expression was initiated with 0.5 mM isopropyl β-D-1-thiogalactopyranoside (IPTG) when the OD600 reached 0.8. Following induction, the cells were incubated for 16 hours at 18 °C before being harvested by centrifugation. The cells were resuspended in a lysis buffer containing 40 mM potassium phosphate pH 8.0, 400 mM KCl, 10 mM imidazole, and protease inhibitors (Sigma), and then lysed by sonication. After centrifugation, the proteins were initially purified using a Ni^2+-affinity HisTrap column (GE Healthcare). Impurities were washed away with lysis buffer containing 20–40 mM imidazole, and Hsp90β was subsequently eluted with lysis buffer containing 300 mM imidazole. The purification process continued with size exclusion chromatography (SEC) using a Superdex-200 (16/600) column (GE Healthcare) and a running buffer of 50 mM Tris pH 7.5 at room temperature, 300 mM KCl. The purity of the fractions was confirmed by SDS-PAGE, and they were then concentrated. For the NMR experiments, Hsp90β was dialyzed against NMR buffer (50 mM potassium phosphate pD 7.5, 100 mM KCl, 2 mM DTT (98%, D10) in D2O) and subsequently frozen in liquid nitrogen.
The full-length Hsp90β was labeled using the Monolith His-Tag Labeling Kit RED-tris-NTA following the manufacturer's instructions (NanoTemper Technologies GmbH, Munich, Germany). The proteins were first diluted to a concentration of 8 nM in assay buffer (50 mM Tris–HCl, pH 7.4, containing 150 mM NaCl, 5% ethanol, and 10 mM MgCl2). To determine the Kd values, the proteins were mixed with the test compounds in a 1 : 1 ratio as stated in the manufacturers protocol. The final concentration of Hsp90β was 4 nM, with compounds added in the following ranges: 1000 μM to 5.86 μM for 8c; 312.5 μM to 0.15 μM for 13g and 125 μM to 3.91 μM for 1. Two independent Kd determinations were performed for compounds 8c and 13g. […] Next, Cdc37 (AR09008PUN, OriGene Technologies, Inc., Rockville, MD, USA) was acquired for the purpose of PPI inhibition evaluation between full-length Hsp90β and Cdc37. […] In all experiments the compounds were incubated with the proteins for 15 minutes in the dark at room temperature. The mixtures were then loaded into Monolith NT.115 Premium Capillaries (NanoTemper Technologies GmbH, Munich, Germany). Thermophoresis was induced at 1475 ± 15 nm and measured using a Monolith NT.115 pico instrument (NanoTemper Technologies GmbH, Munich, Germany). Measurements were conducted at ambient temperature (24–25 °C), with excitation power set to 20% and MST power set to 40%, and a laser on time of 5 seconds. To calculate the Kd values, the average fluorescence responses for each concentration were plotted against the logarithm of compound concentrate on using GraphPad Prism software (GraphPad Software, Inc., La Jolla, CA).
In general terms: Microscale thermophoresis detects binding through changes in fluorescence in a small temperature gradient.

The subject of the next assay is SK-N-MC cells. As to the kind of experiment: Apoptosis assay, annexin V–PE/SytoxBlue staining, flow cytometry. The assay is classed as cell-based. Here is the method:
Apoptosis of SK-N-MC cells was evaluated by detecting phosphatidylserines using R-phycoerythrin–annexin V conjugate (R-PE annexin V; Invitrogen, Carlsbad, CA, USA) and nucleic acids in dead cells using SytoxBlue Dead Cell Stain (Invitrogen, Carlsbad, CA, USA), according to the manufacturer's instructions. Briefly, 2.5 × 10^5 SK-N-MC cells were seeded in six-well plates. After 24 hours, cells were washed with PBS and treated with 8c and 13g in 10 and 20 μM concentrations for 24 and 48 hours. The medium with detached cells was then collected, and attached cells were harvested and combined with the detached cells. Following two washing steps with cold PBS, cells were resuspended in 100 μL annexin-binding buffer (Invitrogen, Carlsbad, CA, USA) containing 2.5 μL annexin V–R-PE solution and 750 nM SytoxBlue, and incubated in the dark for 15 minutes at room temperature. Before measurement, 200 μL of annexin-binding buffer was added. A minimum of 10 000 events were collected using a flow cytometer (Attune NxT; Invitrogen, Carlsbad, CA, USA). Annexin V (ANV)-/SYTOX Blue (SB)-indicates viable cells, ANV+/SB− indicates early apoptotic cells, ANV+/SB+ indicates late apoptotic cells, and ANV−/SB+ indicates necrotic cells.
Background: Flow cytometry measures light scatter and fluorescence of single cells or particles in a stream.

Assay [1] concerns Ewing sarcoma cell line SK-N-MC. As to the kind of experiment: MTS cell viability (antiproliferative) assay in SK-N-MC. The class given is cell-based. Particulars: Homo sapiens, SK-N-MC, 72 hours, mean ± SD. Here is the method:
Hormone-positive breast cancer cell line MCF-7 (ATCC-HTB-22; ATCC) was grown in Dulbecco's Modified Eagle's Medium (DMEM), while Ewing sarcoma cell line SK-N-MC (a kind gift from Beat Schäfer) and THP-1 (ATCC-TIB-202; ATCC) cells were grown in Roswell Park Memorial Institute (RPMI) 1640. The medium was supplemented with 10% heat-inactivated fetal bovine serum (Gibco, Thermo Fisher Scientific, Waltham, MA, USA), 100 U per mL penicillin, 100 μg per mL streptomycin, and 2 mM L-glutamine (all from Sigma-Aldrich, St. Louis, MO, USA). All cell lines were incubated at 37 °C in a 5% CO2 atmosphere.
The antiproliferative activity of the compounds was evaluated against MCF-7 (ATCC-HTB-22; ATCC), SK-N-MC (a kind gift from Beat Schäfer) and THP-1 (ATCC-TIB-202; ATCC) cancer cell lines using the MTS assay (Promega, Madison, WI, USA). Cells were seeded in 96-well plates at a density of 2 × 10^4 cells per mL in 100 μL of growth medium for THP-1 and were treated with compounds and controls directly, while 3 × 10^3 cells per mL for MCF-7 and SK-N-MC were seeded in 100 μL of growth medium and allowed to adhere overnight following the treatment. In all cases the cells were treated with respective newly prepared compounds, positive controls (17-DMAG for MCF-7 and SK-N-MC; PU-H71 for THP-1) and a vehicle control (0.5% DMSO). The incubation time after treatment was 72 hours, then CellTiter96® Aqueous One Solution Reagent (Promega, Madison, WI, USA) was added to each well. Following a 3 hours incubation, absorbance was measured at 492 nm using BioTek's Synergy™ 4 Hybrid Microplate Reader (Winooski, VT, USA). The measurements were performed in two biological repetitions and each time the experiment was performed in a triplicate. The IC50 values, representing the concentration of inhibitor required for half-maximal inhibition, are the average of three independent experiments and were calculated using GraphPad Prism 9.5.0 software (San Diego, CA, USA).

T1 sequence (P08238 whole entry): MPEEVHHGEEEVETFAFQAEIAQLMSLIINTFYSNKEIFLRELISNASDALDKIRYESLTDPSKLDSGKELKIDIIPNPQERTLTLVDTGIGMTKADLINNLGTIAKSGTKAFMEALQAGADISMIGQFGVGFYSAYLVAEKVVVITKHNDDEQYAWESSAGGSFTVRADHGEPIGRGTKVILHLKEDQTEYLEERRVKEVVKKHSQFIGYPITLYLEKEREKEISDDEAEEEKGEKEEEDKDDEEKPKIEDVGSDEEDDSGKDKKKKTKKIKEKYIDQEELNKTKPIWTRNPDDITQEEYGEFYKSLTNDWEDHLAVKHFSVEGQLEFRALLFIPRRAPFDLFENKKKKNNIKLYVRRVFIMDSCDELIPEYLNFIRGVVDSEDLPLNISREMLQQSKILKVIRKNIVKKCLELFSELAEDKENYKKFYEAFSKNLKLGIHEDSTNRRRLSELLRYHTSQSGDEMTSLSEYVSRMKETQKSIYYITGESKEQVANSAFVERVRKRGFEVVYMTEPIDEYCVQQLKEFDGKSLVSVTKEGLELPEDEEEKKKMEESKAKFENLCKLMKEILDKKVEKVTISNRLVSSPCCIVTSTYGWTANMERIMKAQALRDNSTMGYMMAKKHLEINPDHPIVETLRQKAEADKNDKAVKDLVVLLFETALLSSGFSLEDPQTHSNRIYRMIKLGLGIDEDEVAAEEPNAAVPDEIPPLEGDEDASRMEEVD

For the compound `O=C(NCCOc1ccccc1)c1ccc(Nc2cc(N3CCNCC3)ncn2)cc1` [Compound 13g, N-(2-Phenoxyethyl)-4-((6-(piperazin-1-yl)pyrimidin-4-yl)amino)benzamide], the Kd at full-length Hsp90β worked out at 73.3 µM. Also, the “proportion of apoptotic cells” value is on record as 27% in the assay on SK-N-MC cells (10 μM, 24 hours); 11.4% with SK-N-MC cells (10 μM, 48 hours); 42.8% in the assay on SK-N-MC cells (20 μM, 24 hours); 56.8% in the assay on SK-N-MC cells (20 μM, 48 hours). In addition, the IC50 in assay [1] came out at 20 ± 1.5 µM.
Take `CN(CCOc1ccccc1)C(=O)c1csc(Nc2cc(N3CCNCC3)ncn2)n1` [Compound 8c, N-Methyl-N-(2-phenoxyethyl)-2-((6-(piperazin-1-yl)pyrimidin-4-yl)amino)thiazole-4-carboxamide]: on full-length Hsp90β, binding was put at a Kd of 70.8 µM. Further, the “induction of apoptosis (qualitative)” value in the assay on SK-N-MC cells (10 μM and 20 μM, 24 and 48 hours) is “significantly induced apoptosis”. For the same compound, the “proportion of apoptotic cells” value in the assay with SK-N-MC cells (20 μM, 24 hours) came to 87.5%; in the assay with SK-N-MC cells (20 μM, 48 hours) it was 87.7%. For the same compound, the IC50 in assay [1] was 12.8 ± 0.9 µM.

These data come from PMC11375794, “Discovery of new Hsp90–Cdc37 protein–protein interaction inhibitors: in silico screening and optimization of anticancer activity” (RSC Advances, 2024).
